Patent US8735384B2, “Amino heteroaryl compounds as beta-secretase modulators and methods of use” (Amgen Inc., priority 2010, dated 2014)
Read-outs that look alike come from different tables or passages of the source.

What was measured:
[1] = system: Aβ40 in conditioned medium of cells stably expressing Amyloid Precursor Protein (APP); assay: In vitro BACE cell-based assay (HEK cell assay), Aβ40 sandwich ELISA; settings: inhibition of Aβ40, 24 h incubation, read-out: HEK cell assay (IC50 class)
In short: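 Aβ40 in conditioned medium measured after 24 h compound exposure (10-point series, 100 μM or 10 μM start, 0.1% DMSO) of cells stably expressing APP, seeded 40K/well. Detection: pAb40/6E10-biotin sandwich ELISA at 4°C with time-resolved europium read-out; IC50 derived from percent of control.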

BACE1 = BACE1 (Homo sapiens, UniProt P56817); assay: In vitro enzymatic BACE FRET assay; type: biochemical; settings: beta secretase enzyme 0.2 nM, FRET substrate 50 nM, pH 4.2; read-out: BACE1 FRET assay (IC50 class)
Chain of BACE1 (P56817 46-501, species assumed): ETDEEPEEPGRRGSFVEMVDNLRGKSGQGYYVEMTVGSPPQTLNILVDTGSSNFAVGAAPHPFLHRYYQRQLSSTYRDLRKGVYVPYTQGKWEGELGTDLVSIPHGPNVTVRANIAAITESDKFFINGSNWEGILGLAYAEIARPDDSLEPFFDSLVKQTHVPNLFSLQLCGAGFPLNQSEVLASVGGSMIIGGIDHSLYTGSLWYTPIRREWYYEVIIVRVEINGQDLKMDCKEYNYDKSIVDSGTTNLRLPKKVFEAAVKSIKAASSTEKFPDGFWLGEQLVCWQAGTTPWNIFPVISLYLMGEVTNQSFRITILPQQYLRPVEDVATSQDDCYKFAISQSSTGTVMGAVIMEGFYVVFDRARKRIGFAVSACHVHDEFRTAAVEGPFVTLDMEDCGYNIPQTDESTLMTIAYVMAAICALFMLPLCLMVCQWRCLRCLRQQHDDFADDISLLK
In short: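 Enzyme activity was measured as release of quenching from a 50 nM fluorophore/quencher peptide spanning the cleavage site, over 1 h. This followed 1 h pre-incubation of 0.2 nM enzyme with compound dilutions at pH 4.2 (acetate, 10% DMSO, genapol). Tris addition ended the reaction before fluorescence was measured.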

Compound `Cc1cccc(C(=NO)c2ccccc2)c1-c1ccc2nc(N)c(N3CCOCC3)cc2c1` (stereo in doubt) [Example 16, (Z)-(2-(2-amino-3-morpholinoquinolin-6-yl)-3-methylphenyl)(phenyl)methanone oxime] has an IC50 [1] of 501 to 1000 nM and an IC50 (BACE1) of under 100 nM.

Compound `CCN(C)C(=O)c1cccc(C)c1-c1ccc2nc(N)c(N3CCOCC3)cc2c1` [Example 121, 2-(2-amino-3-morpholinoquinolin-6-yl)-N-ethyl-N,3-dimethylbenzamide] has an IC50 ([1]; Homo sapiens, HEK293, 24 h) of 1010 to 5000 nM and an IC50 (BACE1) of 100 to 500 nM.

With `Cc1cccc(C(=O)N2CCCCC2C)c1-c1ccc2nc(N)c(N3CCOCC3)cc2c1` (centres unmarked) [Example 87, (2-(2-amino-3-morpholinoquinolin-6-yl)-3-methylphenyl)(2-methylpiperidin-1-yl)methanone] the IC50 ([1]; Homo sapiens, HEK293, 24 h) was 501 to 1000 nM and the IC50 (BACE1) was under 100 nM.

Work on `Cc1cccc(C2NCCc3ccccc32)c1-c1ccc2nc(N)c(N3CCOCC3)cc2c1` (centres unmarked) [Example 10, 6-(2-methyl-6-(1,2,3,4-tetrahydroisoquinolin-1-yl)phenyl)-3-morpholinoquinolin-2-amine] yielded an IC50 ([1]; Homo sapiens, HEK293, 24 h) of 100 to 500 nM and an IC50 (BACE1) of 1010 to 5000 nM.

`Cc1cccc(C(=O)N2CCOC(C)(C)C2)c1-c1ccc2nc(N)c(N3CCOCC3)cc2c1` [Example 43, (2-(2-amino-3-morpholinoquinolin-6-yl)-3-methylphenyl)(2,2-dimethylmorpholino)methanone] was tested, and the IC50 ([1]; Homo sapiens, HEK293, 24 h) was 1010 to 5000 nM and the IC50 (BACE1) was 100 to 500 nM.

`Cc1cccc(Cc2ccccc2)c1-c1ccc2nc(N)c(N3CCOCC3)cc2c1` [Example 18, 6-(2-benzyl-6-methylphenyl)-3-morpholinoquinolin-2-amine] showed an IC50 ([1]; Homo sapiens, HEK293, 24 h) of 1010 to 5000 nM and an IC50 (BACE1) of under 100 nM.

With `COc1cccc(C(=O)c2cccc(C)c2-c2ccc3nc(N)c(N4CCOCC4)cc3c2)c1` [Example 177, (2-(2-amino-3-morpholinoquinolin-6-yl)-3-methylphenyl)(3-methoxyphenyl)methanone] the IC50 ([1]; Homo sapiens, HEK293, 24 h) was 1010 to 5000 nM and the IC50 (BACE1) was 100 to 500 nM.

In the case of `COc1ccccc1C(=N)c1cccc(C)c1-c1ccc2nc(N)c(N3CCOCC3)cc2c1` [Example 6, 6-(2-(imino(2-methoxyphenyl)methyl)-6-methylphenyl)-3-morpholinoquinolin-2-amine], the IC50 ([1]; Homo sapiens, HEK293, 24 h) is reported as under 100 nM and the IC50 (BACE1) is reported as under 100 nM.

In the case of `Cc1cccc(C(=O)N2CCCC2)c1-c1ccc2nc(N)c(N3C[C@@H]4C[C@H]3CO4)cc2c1` [Example 56, (2-(2-amino-3-((1S,4S)-2-oxa-5-azabicyclo[2.2.1]heptan-5-yl)quinolin-6-yl)-3-methylphenyl)(pyrrolidin-1-yl)methanone], the IC50 ([1]; Homo sapiens, HEK293, 24 h) is reported as under 100 nM and the IC50 (BACE1) is reported as under 100 nM.

With `Cc1cccc(C(=O)Cc2ccccc2)c1-c1ccc2nc(N)c(N3CCOCC3)cc2c1` [Example 185, 1-(2-(2-amino-3-morpholinoquinolin-6-yl)-3-methylphenyl)-2-phenylethanone] the IC50 ([1]; Homo sapiens, HEK293, 24 h) was 1010 to 5000 nM and the IC50 (BACE1) was under 100 nM.

`Cc1ccc(C2(C)CN(c3cc4cc(-c5c(C)cccc5C(=O)N5CCCC5)ccc4nc3N)CCO2)cc1` (centres unmarked) [Example 217, (2-(2-amino-3-(2-methyl-2-p-tolylmorpholino)quinolin-6-yl)-3-methylphenyl)(pyrrolidin-1-yl)methanone] was tested, and the IC50 ([1]; Homo sapiens, HEK293, 24 h) was 1010 to 5000 nM and the IC50 (BACE1) was 100 to 500 nM.

`Cc1cccc(C(=O)N(C)C2CCCCC2)c1-c1ccc2nc(N)c(N3CCOCC3)cc2c1` [Example 112, 2-(2-amino-3-morpholinoquinolin-6-yl)-N-cyclohexyl-N,3-dimethylbenzamide] showed an IC50 ([1]; Homo sapiens, HEK293, 24 h) of 1010 to 5000 nM and an IC50 (BACE1) of under 100 nM.

In the case of `CCCN(C(=O)c1cccc(C)c1-c1ccc2nc(N)c(N3CCOCC3)cc2c1)C(C)C` [Example 106, 2-(2-amino-3-morpholinoquinolin-6-yl)-N-isopropyl-3-methyl-N-propylbenzamide], the IC50 ([1]; Homo sapiens, HEK293, 24 h) is reported as over 5000 nM and the IC50 (BACE1) is reported as 501 to 1000 nM.

With `CC(C)(C)COc1ccccc1-c1ccc2nc(N)c(N3CCOCC3)cc2c1` [Example 51, 3-morpholino-6-(2-(neopentyloxy)phenyl)quinolin-2-amine] the IC50 ([1]; Homo sapiens, HEK293, 24 h) was over 5000 nM and the IC50 (BACE1) was 501 to 1000 nM.

`Cc1cccc(C(=O)N2CCCC2)c1-c1ccc2nc(N)c(N3CCOC(CC(C)C)C3)cc2c1` (centres unmarked) [Example 213, (2-(2-amino-3-(2-isobutylmorpholino)quinolin-6-yl)-3-methylphenyl)(pyrrolidin-1-yl)methanone] showed an IC50 ([1]; Homo sapiens, HEK293, 24 h) of 1010 to 5000 nM and an IC50 (BACE1) of under 100 nM.

In the case of `Nc1nc2ccc(-c3ccccc3-n3ncc4c3CCCC4)cc2cc1N1CCOCC1` [Example 33, 3-morpholino-6-(2-(4,5,6,7-tetrahydro-1H-indazol-1-yl)phenyl)quinolin-2-amine], the IC50 ([1]; Homo sapiens, HEK293, 24 h) is reported as 1010 to 5000 nM and the IC50 (BACE1) is reported as 100 to 500 nM.

For `Cc1cccc(C(=O)N(C)Cc2cccc3ccccc23)c1-c1ccc2nc(N)c(N3CCOCC3)cc2c1` [Example 135, 2-(2-amino-3-morpholinoquinolin-6-yl)-N,3-dimethyl-N-(naphthalen-1-ylmethyl)benzamide], the IC50 ([1]; Homo sapiens, HEK293, 24 h) was 1010 to 5000 nM and the IC50 (BACE1) was 100 to 500 nM.

`Cc1cccc(C(=O)N2CC[C@@H](C)C2)c1-c1ccc2nc(N)c(N3CCOCC3)cc2c1` [Example 101, (R)-(2-(2-amino-3-morpholinoquinolin-6-yl)-3-methylphenyl)(3-methylpyrrolidin-1-yl)methanone] was tested, and the IC50 ([1]; Homo sapiens, HEK293, 24 h) was 501 to 1000 nM and the IC50 (BACE1) was under 100 nM.

`Nc1nc2ccc(-c3ccccc3C(=O)c3ccccc3)cc2cc1N1CCOCC1` [Example 151, (2-(2-amino-3-morpholinoquinolin-6-yl)phenyl)(phenyl)methanone] gave an IC50 ([1]; Homo sapiens, HEK293, 24 h) of 1010 to 5000 nM and an IC50 (BACE1) of 100 to 500 nM.

With `COCCC1CCCCN1C(=O)c1cccc(C)c1-c1ccc2nc(N)c(N3CCOCC3)cc2c1` (centres unmarked) [Example 83, (2-(2-amino-3-morpholinoquinolin-6-yl)-3-methylphenyl)(2-(2-methoxyethyl)piperidin-1-yl)methanone] the IC50 ([1]; Homo sapiens, HEK293, 24 h) was 1010 to 5000 nM and the IC50 (BACE1) was 100 to 500 nM.

`Cc1cccc(C(=O)c2ccc(Cl)cc2)c1-c1ccc2nc(N)c(N3CCOCC3)cc2c1` [Example 176, (2-(2-amino-3-morpholinoquinolin-6-yl)-3-methylphenyl)(4-chlorophenyl)methanone] gave an IC50 ([1]; Homo sapiens, HEK293, 24 h) of 1010 to 5000 nM and an IC50 (BACE1) of under 100 nM.

For `Cc1cccnc1C(N)c1cccc(C)c1-c1ccc2nc(N)c(N3CCOCC3)cc2c1` (centres unmarked) [Example 194, 6-(2-(amino(3-methylpyridin-2-yl)methyl)-6-methylphenyl)-3-morpholinoquinolin-2-amine], the IC50 ([1]; Homo sapiens, HEK293, 24 h) was 100 to 500 nM and the IC50 (BACE1) was 501 to 1000 nM.

For `C=CCN(CC=C)C(=O)c1cccc(C)c1-c1ccc2nc(N)c(N3CCOCC3)cc2c1` [Example 116, N,N-diallyl-2-(2-amino-3-morpholinoquinolin-6-yl)-3-methylbenzamide], the IC50 ([1]; Homo sapiens, HEK293, 24 h) was 1010 to 5000 nM and the IC50 (BACE1) was 100 to 500 nM.

`Cc1cccc(C(=O)N(C)c2ccccc2)c1-c1ccc2nc(N)c(N3CCOCC3)cc2c1` [Example 126, 2-(2-amino-3-morpholinoquinolin-6-yl)-N,3-dimethyl-N-phenylbenzamide] was tested, and the IC50 ([1]; Homo sapiens, HEK293, 24 h) was 1010 to 5000 nM and the IC50 (BACE1) was 100 to 500 nM.

For `Cc1cccc(C(=O)N2CCCC2)c1-c1ccc2nc(N)c(C3CCOCC3)cc2c1` [Example 28, (2-(2-amino-3-(tetrahydro-2H-pyran-4-yl)quinolin-6-yl)-3-methylphenyl)(pyrrolidin-1-yl)methanone], the IC50 ([1]; Homo sapiens, HEK293, 24 h) was under 100 nM and the IC50 (BACE1) was under 100 nM.

For `CCCC(C)N(C)C(=O)c1cccc(C)c1-c1ccc2nc(N)c(N3CCOCC3)cc2c1` (centres unmarked) [Example 120, 2-(2-amino-3-morpholinoquinolin-6-yl)-N,3-dimethyl-N-(pentan-2-yl)benzamide], the IC50 ([1]; Homo sapiens, HEK293, 24 h) was 1010 to 5000 nM and the IC50 (BACE1) was under 100 nM.

With `Nc1nc2ccc(-c3c(Cl)cccc3C(=O)N3CCCC3)cc2cc1N1CCOCC1` [Example 42, (2-(2-amino-3-morpholinoquinolin-6-yl)-3-chlorophenyl)(pyrrolidin-1-yl)methanone] the IC50 ([1]; Homo sapiens, HEK293, 24 h) was 501 to 1000 nM and the IC50 (BACE1) was under 100 nM.

`COC[C@H]1CCCN1C(=O)c1cccc(C)c1-c1ccc2nc(N)c(N3CCOCC3)cc2c1` [Example 70, (R)-(2-(2-amino-3-morpholinoquinolin-6-yl)-3-methylphenyl)(2-(methoxymethyl)pyrrolidin-1-yl)methanone] gave an IC50 ([1]; Homo sapiens, HEK293, 24 h) of 1010 to 5000 nM and an IC50 (BACE1) of 100 to 500 nM.

For `CC(C)(C)C#Cc1ccccc1-c1ccc2nc(N)c(N3CCOCC3)cc2c1` [Example 160, 6-(2-(3,3-dimethylbut-1-ynyl)phenyl)-3-morpholinoquinolin-2-amine], the IC50 ([1]; Homo sapiens, HEK293, 24 h) was over 5000 nM and the IC50 (BACE1) was 501 to 1000 nM.

`Cc1cccc(C(=O)N2CCCC2C(C)(C)C)c1-c1ccc2nc(N)c(N3CCOCC3)cc2c1` (centres unmarked) [Example 64, (2-(2-amino-3-morpholinoquinolin-6-yl)-3-methylphenyl)(2-tert-butylpyrrolidin-1-yl)methanone] showed an IC50 ([1]; Homo sapiens, HEK293, 24 h) of 501 to 1000 nM and an IC50 (BACE1) of under 100 nM.

`Cc1cccc(C(O)c2ccccc2)c1-c1ccc2nc(N)c(N3CCOCC3)cc2c1` (centres unmarked) [Example 199, (2-(2-amino-3-morpholinoquinolin-6-yl)-3-methylphenyl)(phenyl)methanol] showed an IC50 ([1]; Homo sapiens, HEK293, 24 h) of 100 to 500 nM and an IC50 (BACE1) of under 100 nM.

Compound `Nc1nc2ccc(-c3c(Cl)cccc3C(=O)N3CCCCC3)cc2cc1N1CCOCC1` [Example 143, (2-(2-amino-3-morpholinoquinolin-6-yl)-3-chlorophenyl)(piperidin-1-yl)methanone] has an IC50 ([1]; Homo sapiens, HEK293, 24 h) of 1010 to 5000 nM and an IC50 (BACE1) of under 100 nM.

For `Cc1cccc(-n2cc(Cl)cn2)c1-c1ccc2nc(N)c(N3CCOCC3)cc2c1` [Example 204, 6-(2-(4-chloro-1H-pyrazol-1-yl)-6-methylphenyl)-3-morpholinoquinolin-2-amine], the IC50 ([1]; Homo sapiens, HEK293, 24 h) was over 5000 nM and the IC50 (BACE1) was 501 to 1000 nM.

Work on `Cc1cccc(C(c2ccccc2)n2ccnc2)c1-c1ccc2nc(N)c(N3CCOCC3)cc2c1` (centres unmarked) [Example 8, 6-(2-((1H-imidazol-1-yl)(phenyl)methyl)-6-methylphenyl)-3-morpholinoquinolin-2-amine] yielded an IC50 ([1]; Homo sapiens, HEK293, 24 h) of 1010 to 5000 nM and an IC50 (BACE1) of 1010 to 5000 nM.
